Several values for one entry are separate records, joined by “and”; a condition that tells them apart may be missing. Equal values may be shown once.
Assays:
[1] = molecular target: T1, Neuronal acetylcholine receptor; alpha4/beta2 (Rattus norvegicus, UniProt P09483+P12390); assay: Binding affinity towards rat Nicotinic acetylcholine receptor alpha4-beta2 expressed in Xenopus oocytes using [3H]epibatidine as radioligand; type: cell-based, Oocyte
[2] = molecular target: Neuronal acetylcholine receptor; alpha2/beta2 (Rattus norvegicus, UniProt P12389+P12390); assay: Binding affinity towards rat alpha2-beta2 neuronal nAChR expressed in Xenopus oocytes using [3H]epibatidine as radioligand; type: cell-based, Oocyte
Sequence of Neuronal acetylcholine receptor; alpha2/beta2 (P12389 whole entry): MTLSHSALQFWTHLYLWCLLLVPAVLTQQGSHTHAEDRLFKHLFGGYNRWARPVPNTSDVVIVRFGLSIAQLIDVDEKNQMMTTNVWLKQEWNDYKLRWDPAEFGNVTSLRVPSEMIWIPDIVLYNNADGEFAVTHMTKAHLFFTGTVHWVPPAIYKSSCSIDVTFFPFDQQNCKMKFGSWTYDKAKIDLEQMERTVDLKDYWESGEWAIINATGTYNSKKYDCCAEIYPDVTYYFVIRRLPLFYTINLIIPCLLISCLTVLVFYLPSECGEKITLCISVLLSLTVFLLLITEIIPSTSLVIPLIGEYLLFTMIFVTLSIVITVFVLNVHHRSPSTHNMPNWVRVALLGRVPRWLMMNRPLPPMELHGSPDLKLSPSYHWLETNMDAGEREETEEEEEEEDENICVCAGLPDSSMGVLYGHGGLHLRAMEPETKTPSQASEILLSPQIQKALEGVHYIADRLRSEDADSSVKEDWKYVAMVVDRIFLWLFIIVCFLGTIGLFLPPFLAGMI
Sequence of Neuronal acetylcholine receptor; alpha2/beta2 (P12390 whole entry): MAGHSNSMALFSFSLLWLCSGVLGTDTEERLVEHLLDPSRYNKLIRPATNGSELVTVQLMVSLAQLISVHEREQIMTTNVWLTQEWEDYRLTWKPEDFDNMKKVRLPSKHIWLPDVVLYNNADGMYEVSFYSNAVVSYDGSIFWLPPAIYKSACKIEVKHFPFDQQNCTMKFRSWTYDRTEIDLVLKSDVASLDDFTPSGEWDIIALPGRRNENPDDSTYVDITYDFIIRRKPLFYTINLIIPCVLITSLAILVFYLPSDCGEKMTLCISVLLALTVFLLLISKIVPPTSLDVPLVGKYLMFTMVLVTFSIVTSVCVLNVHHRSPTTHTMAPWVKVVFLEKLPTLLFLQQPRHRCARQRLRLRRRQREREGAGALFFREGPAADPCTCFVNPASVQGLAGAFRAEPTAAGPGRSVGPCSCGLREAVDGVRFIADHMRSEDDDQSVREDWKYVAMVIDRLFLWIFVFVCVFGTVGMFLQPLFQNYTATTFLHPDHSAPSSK

[3] = molecular target: Neuronal acetylcholine receptor; alpha3/beta2 (Rattus norvegicus, UniProt P04757+P12390); assay: Binding affinity towards rat Nicotinic acetylcholine receptor alpha3-beta2 expressed in Xenopus oocytes using [3H]epibatidine as radioligand; type: cell-based, Oocyte
Sequence of Neuronal acetylcholine receptor; alpha3/beta2 (P04757 whole entry): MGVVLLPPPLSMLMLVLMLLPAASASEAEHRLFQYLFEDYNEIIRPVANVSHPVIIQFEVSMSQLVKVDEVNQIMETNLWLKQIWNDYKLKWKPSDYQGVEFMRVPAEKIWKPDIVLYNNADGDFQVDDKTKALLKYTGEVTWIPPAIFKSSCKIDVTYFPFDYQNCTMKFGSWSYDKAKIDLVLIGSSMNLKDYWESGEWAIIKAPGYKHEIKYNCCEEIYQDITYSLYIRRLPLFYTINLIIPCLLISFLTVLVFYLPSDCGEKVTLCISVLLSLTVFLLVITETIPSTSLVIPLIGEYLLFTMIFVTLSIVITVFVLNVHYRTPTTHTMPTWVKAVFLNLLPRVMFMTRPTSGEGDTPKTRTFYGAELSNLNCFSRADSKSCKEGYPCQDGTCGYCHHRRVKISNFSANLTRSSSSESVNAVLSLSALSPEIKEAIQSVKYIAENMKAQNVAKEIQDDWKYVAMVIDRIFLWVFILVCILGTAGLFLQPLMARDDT
Sequence of Neuronal acetylcholine receptor; alpha3/beta2 (P12390 whole entry): as the sequence (P12390 whole entry) above

[4] = molecular target: Neuronal acetylcholine receptor; alpha4/beta4 (Rattus norvegicus) (UniProt P09483+P12392); assay: Functional potency measured as maximum stimulation at rat Nicotinic acetylcholine receptor alpha4-beta4 expressed in Xenopus oocytes; type: cell-based; settings: Oocyte
[5] = molecular target: Neuronal acetylcholine receptor; alpha4/beta2 (Rattus norvegicus) (UniProt P09483+P12390); assay: Functional potency measured as maximum stimulation at rat Nicotinic acetylcholine receptor alpha4-beta2 expressed in Xenopus oocytes; type: cell-based; settings: Oocyte
[6] = molecular target: Neuronal acetylcholine receptor; alpha3/beta4 (Rattus norvegicus) (UniProt P04757+P12392); assay: Functional potency measured as maximum stimulation at rat Nicotinic acetylcholine receptor alpha3-beta4 expressed in Xenopus oocytes; type: cell-based; settings: Oocyte
[7] = molecular target: T1, Neuronal acetylcholine receptor; alpha4/beta2; assay: Inhibition of [3H]nicotine binding to Nicotinic acetylcholine receptor alpha4-beta2 from rat membranes
Mus musculus [8] = species: Mus musculus; assay: Antinociceptive activity was tested in the mouse hot plate test; type: functional
Mus musculus [9] = species: Mus musculus; assay: Antinociceptive activity was tested in the mouse tail-flick test; type: functional
Mus musculus [10] = species: Mus musculus; assay: Antinociceptive activity was tested in the mouse tail-flick test at 112 nM; type: functional
[11] = molecular target: Neuronal acetylcholine receptor; alpha2/beta4 (Rattus norvegicus, UniProt P12389+P12392); assay: Binding affinity towards rat Nicotinic acetylcholine receptor alpha2-beta4 expressed in Xenopus oocytes using [3H]epibatidine as radioligand; type: cell-based, Oocyte
Sequence of Neuronal acetylcholine receptor; alpha2/beta4 (P12389 whole entry): as the sequence (P12389 whole entry) above
Sequence of Neuronal acetylcholine receptor; alpha2/beta4 (P12392 whole entry): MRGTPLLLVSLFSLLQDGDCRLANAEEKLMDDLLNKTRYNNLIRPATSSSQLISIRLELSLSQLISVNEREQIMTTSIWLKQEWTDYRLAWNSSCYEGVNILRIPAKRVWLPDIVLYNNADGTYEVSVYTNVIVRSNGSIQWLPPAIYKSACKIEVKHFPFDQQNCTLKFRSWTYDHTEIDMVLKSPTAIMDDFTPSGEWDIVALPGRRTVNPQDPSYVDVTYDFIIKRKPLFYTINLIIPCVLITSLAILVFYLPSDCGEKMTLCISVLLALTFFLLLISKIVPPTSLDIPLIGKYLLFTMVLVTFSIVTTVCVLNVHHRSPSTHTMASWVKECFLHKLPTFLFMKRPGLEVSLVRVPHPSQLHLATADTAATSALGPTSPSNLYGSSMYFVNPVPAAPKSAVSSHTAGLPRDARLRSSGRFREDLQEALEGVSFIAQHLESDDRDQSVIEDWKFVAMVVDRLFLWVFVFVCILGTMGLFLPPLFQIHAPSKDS

[12] = molecular target: T2, Neuronal acetylcholine receptor; alpha4/beta4 (Rattus norvegicus, UniProt P09483+P12392); assay: Functional potency measured as stimulation at rat Nicotinic acetylcholine receptor alpha4-beta4 expressed in Xenopus oocytes; type: cell-based, Oocyte
T2 sequence (P09483 whole entry): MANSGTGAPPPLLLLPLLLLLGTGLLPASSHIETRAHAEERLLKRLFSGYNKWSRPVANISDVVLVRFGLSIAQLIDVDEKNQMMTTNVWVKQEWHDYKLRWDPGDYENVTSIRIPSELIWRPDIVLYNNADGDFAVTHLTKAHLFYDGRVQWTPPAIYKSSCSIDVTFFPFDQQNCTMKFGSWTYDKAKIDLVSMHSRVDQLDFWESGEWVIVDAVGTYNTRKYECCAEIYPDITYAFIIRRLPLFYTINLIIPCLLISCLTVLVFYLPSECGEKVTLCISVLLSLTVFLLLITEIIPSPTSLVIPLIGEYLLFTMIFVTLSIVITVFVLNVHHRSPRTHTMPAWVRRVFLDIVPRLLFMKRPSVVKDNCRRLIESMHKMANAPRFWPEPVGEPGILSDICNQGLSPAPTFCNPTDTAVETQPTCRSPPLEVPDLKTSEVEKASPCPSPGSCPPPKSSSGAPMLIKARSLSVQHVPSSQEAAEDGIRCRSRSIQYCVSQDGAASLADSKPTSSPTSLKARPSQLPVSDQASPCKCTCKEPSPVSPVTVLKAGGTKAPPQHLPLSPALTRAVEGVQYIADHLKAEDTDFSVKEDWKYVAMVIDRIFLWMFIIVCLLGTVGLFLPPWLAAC
T2 sequence (P12392 whole entry): as the sequence (P12392 whole entry) above

[13] = molecular target: T2, Neuronal acetylcholine receptor; alpha4/beta4; assay: Binding affinity towards rat Nicotinic acetylcholine receptor alpha4-beta4 expressed in Xenopus oocytes using [3H]epibatidine as radioligand; type: cell-based, Oocyte
[14] = molecular target: T3, Neuronal acetylcholine receptor; alpha3/beta4 (Rattus norvegicus, UniProt P04757+P12392); assay: Functional potency measured as stimulation at rat Nicotinic acetylcholine receptor alpha3-beta4 expressed in Xenopus oocytes; type: cell-based, Oocyte
T3 sequence (P04757 whole entry): as the sequence (P04757 whole entry) above
T3 sequence (P12392 whole entry): as the sequence (P12392 whole entry) above

[15] = molecular target: T3, Neuronal acetylcholine receptor; alpha3/beta4; assay: Binding affinity towards rat Nicotinic acetylcholine receptor alpha3-beta4 expressed in Xenopus oocytes using [3H]epibatidine as radioligand; type: cell-based, Oocyte
[16] = molecular target: T1, Neuronal acetylcholine receptor; alpha4/beta2; assay: Functional potency measured as stimulation at rat Nicotinic acetylcholine receptor alpha4-beta2 expressed in Xenopus oocytes; type: cell-based, Oocyte
[17] = molecular target: T1, Neuronal acetylcholine receptor; alpha4/beta2; assay: inhibition of [3H]nicotine binding to alpha4-beta2 nACh receptor from rat membranes from ref 18
[18] = molecular target: T1, Neuronal acetylcholine receptor; alpha4/beta2; assay: Inhibition of [3H]epibatidine binding to Nicotinic acetylcholine receptor alpha4-beta2 from rat membranes
[19] = molecular target: Neuronal acetylcholine receptor subunit alpha-7 (Rattus norvegicus, UniProt Q05941); assay: Inhibition of [125I]-iodo-MLA binding to Nicotinic acetylcholine receptor alpha-7 from rat brain membranes; type: cell membranes, Membrane
Sequence of Neuronal acetylcholine receptor subunit alpha-7 (Q05941 whole entry): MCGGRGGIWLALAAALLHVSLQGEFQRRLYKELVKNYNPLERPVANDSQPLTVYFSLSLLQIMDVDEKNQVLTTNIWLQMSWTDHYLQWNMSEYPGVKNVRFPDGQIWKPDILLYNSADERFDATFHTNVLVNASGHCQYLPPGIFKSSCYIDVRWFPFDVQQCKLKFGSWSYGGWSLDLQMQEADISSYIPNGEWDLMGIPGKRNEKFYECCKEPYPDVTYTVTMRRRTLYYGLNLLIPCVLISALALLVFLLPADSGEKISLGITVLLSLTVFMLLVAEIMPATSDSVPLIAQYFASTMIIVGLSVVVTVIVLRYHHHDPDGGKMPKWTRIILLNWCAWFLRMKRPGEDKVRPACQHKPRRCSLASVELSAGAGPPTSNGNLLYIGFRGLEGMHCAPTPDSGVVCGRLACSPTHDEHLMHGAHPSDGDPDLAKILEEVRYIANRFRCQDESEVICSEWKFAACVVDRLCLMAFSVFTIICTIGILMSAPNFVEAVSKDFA

Mus musculus [20] = species: Mus musculus; assay: Blockage of Antinociceptive activity of nicotine was tested in the mouse hot plate test; type: functional
Mus musculus [21] = species: Mus musculus; assay: Blockage of Antinociceptive activity of nicotine was tested in the mouse tail flick test; type: functional
Mus musculus [22] = assay: Antinociceptive activity was tested in the mouse hot plate test at 15 mg/kg; type: functional
Mus musculus [23] = assay: Antinociceptive activity was tested in the mouse tail-flick test at 15 mg/kg; type: functional
[24] = molecular target: T1, Neuronal acetylcholine receptor; alpha4/beta2; assay: [3H](+/-)-epibatidine binding to Nicotinic acetylcholine receptor alpha4-beta2 from rat membranes
Mus musculus [25] = species: Mus musculus; assay: animal or person
Mus musculus [26] = species: Mus musculus; assay: animal or person; settings: Tail
Mus musculus [27] = species: Mus musculus; assay: Antinociceptive activity was tested in the mouse tail-flick test from ref 15; type: functional
Mus musculus [28] = species: Mus musculus; assay: Antinociceptive activity was tested in the mouse tail-flick test from ref 17; type: functional
Mus musculus [29] = species: Mus musculus; assay: Spontaneous activity in mice from ref 15; type: functional
Mus musculus [30] = species: Mus musculus; assay: Drug discrimination in mice from ref 15
Mus musculus [31] = assay: Blockage of antinociceptive activity was tested in the mouse tail-flick test at 0.01 mg/kg; type: functional
Mus musculus [32] = assay: Blockage of antinociceptive activity was tested in the mouse hot plate test at 0.01 mg/kg; type: functional
Mus musculus [33] = species: Mus musculus; assay: Antinociceptive activity was tested in the mouse tail-flick test at 32.5 nM; type: functional
Mus musculus [34] = species: Mus musculus; assay: Blockage of antinociceptive activity of nicotine was tested in the mouse hot plate test; type: functional

T1 sequence (P09483 whole entry): as the sequence (P09483 whole entry) above
T1 sequence (P12390 whole entry): as the sequence (P12390 whole entry) above

O=S(=O)(OC(F)(F)F)c1ccc(C2CC3CCC2N3)cn1 (stereo unspecified)
Ki [1]: ~100 nM
Ki [2]: > 10 nM
Ki [3]: ~100 nM

CC(=O)OCC[N+](C)(C)C
Max [4]: 98%
Max [5]: 95%
Max [6]: 100%

Cc1ccc(C2CC3CCC2N3)cn1 (stereo unspecified)
Ki [7]: 0.13 nM

Clc1ncc(C2CC3CCC2N3)cc1-c1ccccc1 (stereo unspecified)
ED50 (Mus musculus [8]): 1000 µg/kg
ED50 (Mus musculus [9]): 700 µg/kg

O=c1ccc(C2CC3CCC2N3)c[nH]1 (stereo unspecified)
Ki [1]: ~100 nM
Ki [2]: > 100 nM
Ki [3]: > 100 nM

CC(=O)N1C2CCC1C(c1ccc(Cl)nc1)C2 (stereo unspecified)
ED50 (Mus musculus [9]): > 1000 µg/kg

Nc1ccc(C2CC3CCC2N3)cn1 (stereo unspecified)
Activity (Mus musculus [10]): 57%
Ki [1]: 0.35 nM
Ki [2]: 0.062 nM
Ki [11]: 3.5 nM
EC50 [12]: 1840 nM
Ki [13]: 4.3 nM
Max [4]: 41%
Max [5]: 29%
Ki [3]: 0.077 nM
EC50 [14]: 3240 nM
Ki [15]: 7.2 nM
Max [6]: 82%
EC50 [16]: 7600 nM

Fc1ccc(C2CC3CCC2N3)cn1 (stereo unspecified)
Ki [1]: 0.0092 nM
Ki [2]: 0.0024 nM
Ki [11]: 1.2 nM
EC50 [12]: 239 nM
Ki [13]: 0.48 nM
Max [4]: 131%
Max [5]: 41%
Ki [3]: 0.0038 nM
EC50 [14]: 319 nM
Ki [15]: 2.1 nM
Max [6]: 40%
EC50 [16]: 254 nM
Ki [17]: 0.037 nM

Fc1cc(C2CC3CCC2N3)cnc1Cl (stereo unspecified)
ED50 (Mus musculus [8]): 9 µg/kg
ED50 (Mus musculus [9]): 8 µg/kg
Ki [18]: 0.025 nM

CN1[C@@H]2CC[C@H]1[C@H](c1ccc(Cl)nc1)C2
Ki [7]: 0.26 nM

Clc1ncc(C2CC3CCC2N3)cc1Br (stereo unspecified)
ED50 (Mus musculus [8]): 20 µg/kg
ED50 (Mus musculus [9]): 30 µg/kg
Ki [19]: 152 nM

Fc1ncc([C@@H]2C[C@H]3CC[C@@H]2N3)cc1-c1ccccc1
AD50 (Mus musculus [20]): 2400 µg/kg
AD50 (Mus musculus [21]): 1000 µg/kg
inhibition in vivo at 15 mg/kg (Mus musculus [22]): 8%
inhibition in vivo at 15 mg/kg (Mus musculus [23]): 7%
Ki [18]: 0.24 nM

CCN1C2CCC1C(c1ccc(Cl)nc1)C2 (racemic)
Ki [24]: 13.6 nM

Fc1ncc([C@H]2C[C@@H]3CC[C@H]2N3)cc1-c1ccccc1
AD50 (Mus musculus [20]): 700 µg/kg
AD50 (Mus musculus [21]): 80 µg/kg
inhibition in vivo at 15 mg/kg (Mus musculus [22]): 10%
inhibition in vivo at 15 mg/kg (Mus musculus [23]): 5%
Ki [18]: 0.26 nM

CN1[C@H]2CC[C@@H]1[C@@H](c1ccc(Cl)nc1)C2
ED50 (Mus musculus [9]): 9 µg/kg
Ki [7]: 0.11 nM

CCCN1C2CCC1C(c1ccc(Cl)nc1)C2 (single isomer, unassigned; (-))
Ki [7]: 10.8 nM

Clc1cc(C2CC3CCC2N3)cnc1Cl (stereo unspecified)
ED50 (Mus musculus [8]): 30 µg/kg
ED50 (Mus musculus [9]): 50 µg/kg
Ki [18]: 0.014 nM
Ki [19]: 1.12 nM

Clc1ccc(C2CC3CCC2N3)cn1 (stereo unspecified) [EPIBATIDINE]
ED50 (Mus musculus [9]): > 1000 µg/kg
Max [4]: 71%
Max [5]: 58%
Max [6]: 39%
ED50 (Mus musculus [25]): 4 µg/kg
ED50 (Mus musculus [26]): 6 µg/kg

Clc1ccc([C@@H]2C[C@H]3CC[C@@H]2N3)cn1 [(+)-EPIBATIDINE]
ED50 (Mus musculus [27]): 6.6 µg/kg
ED50 (Mus musculus [28]): 7 µg/kg
ED50 (Mus musculus [29]): 1.2 µg/kg
ED50 (Mus musculus [30]): 0.9 µg/kg

Fc1ncc(C2CC3CCC2N3)cc1-c1ccccc1 (racemic)
AD50 (Mus musculus [20]): 1200 µg/kg
AD50 (Mus musculus [21]): 500 µg/kg
inhibition in vivo at 15 mg/kg (Mus musculus [22]): 4%
inhibition in vivo at 15 mg/kg (Mus musculus [23]): 3%
Ki [18]: 0.24 nM

Brc1ccc(C2CC3CCC2N3)cn1 (stereo unspecified)
Ki [1]: 0.01 nM
Ki [2]: 0.013 nM
Ki [11]: 0.055 nM
EC50 [12]: 20 nM
Ki [13]: 0.044 nM
Max [4]: 102%
Max [5]: 65%
Ki [3]: 0.004 nM
EC50 [14]: 189 nM
Ki [15]: 0.22 nM
Max [6]: 82%
EC50 [16]: 94 nM

Clc1ccc([C@H]2C[C@@H]3CC[C@H]2N3)cn1 [(-)-EPIBATIDINE]
ED50 (Mus musculus [8]): 4 µg/kg
ED50 (Mus musculus [9]): 6 µg/kg
ED50 (Mus musculus [27]): 6.1 µg/kg
ED50 (Mus musculus [28]): 9 µg/kg
ED50 (Mus musculus [29]): 1.8 µg/kg
ED50 (Mus musculus [30]): 1 µg/kg

Clc1ncc(C2CC3CCC2N3)cc1I (stereo unspecified)
Activity (Mus musculus [31]): 4%
ED50 (Mus musculus [8]): 140 µg/kg
ED50 (Mus musculus [9]): 240 µg/kg
Ki [18]: 0.008 nM
Activity (Mus musculus [32]): 0%

Ic1ccc(C2CC3CCC2N3)cn1 (stereo unspecified)
Ki [18]: 0.09 nM

CN(C)c1ccc(C2CC3CCC2N3)cn1 (stereo unspecified)
Activity (Mus musculus [33]): 10%
Ki [1]: > 100 nM
Ki [2]: > 100 nM
Ki [3]: > 100 nM

c1cncc(C2CC3CCC2N3)c1 (stereo unspecified) [DESCHLOROEPIBATIDINE]
Ki [1]: 0.0085 nM
Ki [2]: 0.028 nM
Ki [11]: 3.3 nM
EC50 [12]: 982 nM
Ki [13]: 3.2 nM
Max [4]: 147%
Max [5]: 112%
Ki [3]: 0.0031 nM
EC50 [14]: 702 nM
Ki [15]: 11 nM
Max [6]: 61%
EC50 [16]: 3630 nM

[N-]=[N+]=Nc1cc(C2CC3CCC2N3)cnc1Cl (stereo unspecified) [AZIDOEPIBATIDINE]
Ki [18]: 0.027 nM
Ki [19]: 9.7 nM

Nc1cc(C2CC3CCC2N3)cnc1Cl (stereo unspecified)
AD50 (Mus musculus [34]): 0.03 µg/kg and 0.06 µg/kg
ED50 (Mus musculus [8]): 20 µg/kg
ED50 (Mus musculus [9]): 20 µg/kg
Ki [18]: 0.01 nM
Ki [19]: 13.9 nM

Source: ChEMBL document CHEMBL1147514 (Bioorg Med Chem Lett, 2004)
